What all share (assay type): cell-based, human
Experiment [1] has as its system T-47D. Nature of the experiment: NCI in vitro anti-tumor screening, 1 μM, SRB. Particulars: c = 1 μM; T-47D (Breast cancer); two days.
The test system of experiment [2] is K-562. The experiment is described as follows: NCI in vitro anti-tumor screening, 1 μM, SRB. To be noted: c = 1 μM; K-562 (Leukemia); two days.
For experiment [3], the system named is SK-MEL-2. Nature of the experiment: NCI in vitro anti-tumor screening, 1 μM, SRB. Particulars: c = 1 μM; SK-MEL-2 (Melanoma); two days.
The test system of experiment [4] is Melanoma cell lines. Nature of the experiment: NCI in vitro anti-tumor screening, 1 μM, mean of melanoma lines. To be noted: c = 1 μM.
Experiment [5] relates to M14. The experiment is described as follows: NCI in vitro anti-tumor screening, 1 μM, SRB. Particulars: c = 1 μM; M14 (Melanoma); two days.
Experiment [6] concerns HS-578T. Nature of the experiment: NCI in vitro anti-tumor screening, 1 μM, SRB. To be noted: c = 1 μM; HS-578T (Breast cancer); two days.
In experiment [7] the test system is LOX IMVI. Nature of the experiment: NCI in vitro anti-tumor screening, 1 μM, SRB. Particulars: c = 1 μM; LOX IMVI (Melanoma); two days.
The test system of experiment [8] is SK-MEL-5. The experiment is described as follows: NCI in vitro anti-tumor screening, 1 μM, SRB. Particulars: c = 1 μM; SK-MEL-5 (Melanoma); two days.
Experiment [9] has as its system UACC-62. Nature of the experiment: NCI in vitro anti-tumor screening, 1 μM, SRB. To be noted: c = 1 μM; UACC-62 (Melanoma); two days.
Experiment [10] has as its system MDA-MB-468. The experiment is described as follows: NCI in vitro anti-tumor screening, 1 μM, SRB. To be noted: c = 1 μM; MDA-MB-468 (Breast cancer); two days.
Experiment [11] deals with MALME-3M. Nature of the experiment: NCI in vitro anti-tumor screening, 1 μM, SRB. Particulars: c = 1 μM; MALME-3M (Melanoma); two days.
Experiment [12] concerns SR. Nature of the experiment: NCI in vitro anti-tumor screening, 1 μM, SRB. To be noted: c = 1 μM; SR (Leukemia); two days.
The test system of experiment [13] is HL-60(TB). The experiment is described as follows: NCI in vitro anti-tumor screening, 1 μM, SRB. To be noted: c = 1 μM; HL-60(TB) (Leukemia); two days.
In experiment [14] the test system is MOLT-4. The experiment is described as follows: NCI in vitro anti-tumor screening, 1 μM, SRB. To be noted: c = 1 μM; MOLT-4 (Leukemia); two days.
In experiment [15] the test system is 60 tumor cell lines. Nature of the experiment: NCI in vitro anti-tumor screening, 1 μM, all 60 cell lines. To be noted: c = 1 μM; for growth inhibitory effect (in words): leukemia, melanoma, breast cancer lines of Tables I and II.
The test system of experiment [16] is Leukemia cell lines. Nature of the experiment: NCI in vitro anti-tumor screening, 1 μM, mean of leukemia lines. To be noted: c = 1 μM.
For experiment [17], the system named is MCF7. Nature of the experiment: NCI in vitro anti-tumor screening, 1 μM, SRB. Particulars: c = 1 μM; MCF7 (Breast cancer); two days.
Experiment [18] has as its system RPMI-8226. The experiment is described as follows: NCI in vitro anti-tumor screening, 1 μM, SRB. To be noted: c = 1 μM; RPMI-8226 (Leukemia); two days.
Experiment [19] deals with BT-549. The experiment is described as follows: NCI in vitro anti-tumor screening, 1 μM, SRB. To be noted: c = 1 μM; BT-549 (Breast cancer); two days.
Experiment [20] concerns MDA-MB-231/ATCC. Nature of the experiment: NCI in vitro anti-tumor screening, 1 μM, SRB. Particulars: c = 1 μM; MDA-MB-231/ATCC (Breast cancer); two days.
The subject of experiment [21] is Breast cancer cell lines. The experiment is described as follows: NCI in vitro anti-tumor screening, 1 μM, mean of breast cancer lines. Particulars: c = 1 μM.
Experiment [22] relates to SK-MEL-28. Nature of the experiment: NCI in vitro anti-tumor screening, 1 μM, SRB. Particulars: c = 1 μM; SK-MEL-28 (Melanoma); two days.
In experiment [23] the test system is UACC-257. The experiment is described as follows: NCI in vitro anti-tumor screening, 1 μM, SRB. Particulars: c = 1 μM; UACC-257 (Melanoma); two days.
For experiment [24], the system named is CCRF-CEM. Nature of the experiment: NCI in vitro anti-tumor screening, 1 μM, SRB. To be noted: c = 1 μM; CCRF-CEM (Leukemia); two days.
Experiment [25] relates to 60 tumor cell lines. The experiment is described as follows: NCI 5 dose assay, dose-response (GI50, MG_MID). Particulars: for GI50: Homo sapiens, calculated from mean graph midpoint; for GI50 / MG_MID (mean-graph midpoint, mean of the logarithms GI50 values): all 60 cell lines; for MG_MID (mean-graph midpoint, mean of the logarithms GI50 values): 5 concentrations. An excerpt: It has been shown in the experiments carried out according to the present invention that the above-described phenanthroline derivates have antitumoral properties. Due to their structural similarity it is to be assumed that they have also antimicrobial, antifungal, antiviral and anti-inflammatory properties like the benzo[c]phenanthridines. For investigating the pharmacological properties the compounds of general formulas I and II, as well as compounds of the substance class III were investigated in an “in vitro anti-tumor screening” of the National Cancer Institute (NCI), Bethesda, Md., USA. 60 different human pathogenic tumor cell lines were tested, which originate from nine cancer types (leukemia, non-small cell lung carcinoma, colon cancer, CNS cancer, melanoma, ovarian cancer, renal cancer, prostate cancer, breast cancer). For determining the efficacy, the tumor cells are exposed to the compounds for two days and thereafter the growth inhibition is indirectly determined through the determination of the protein biomass with sulforhodamine B (SRB). Untreated cultures serve as reference.
Furthermore, it can be seen from tables I and II that the here tested phenanthrolin derivatives according to the present invention have selectivities for certain tumor types. The most marked growth inhibitory effect is for tumor cells of leukemia. Furthermore, a degree of selectivity for tumor cells of melanoma and mamma carcinoma (breast cancer) can be seen. […] The GI50 (growth inhibition 50%) describes here the concentration of the test substance required for inhibiting cell growth by 50%. […] Develop. Res., 34, (1995) 91-109,]
Exemplary for 6-amino-11-(3-bromophenyl)-11,12-dihydropyrido[3,4-c][1,9] phenanthrol are the dose-response curves shown in FIGS. 1 to 9. The nine different Figures include the various types of cancer. The percentage of growth, depending on the concentration of the compound is plotted (as log10 of the molar concentrations). The individual curves for each type of cancer are different cell lines of this type of cancer, which appear as legends in their usual abbreviations. Horizontal lines in the Figures denote percent growth +100, +50, 0, −50, −100. 100% growth means e.g. no difference to growth after two days without added substance.

One may read the GI50 as the concentration at which growth is held to half of that of the control.

For `COc1cccc(-c2cc3ccncc3c3nc(N)c4cnccc4c23)c1OC`, the Percentage cell growth in experiment [1] is given as 97.4%; in [2], 88.8%; in experiment [3], 117.3%; in [5], 94.8%; in experiment [6], 90.5%; in experiment [7], 89.3%. Further, the Percentage cell growth in experiment [8] was found to be 86.3%; in experiment [9], 99.1%; in [10], 81.5%; in experiment [11], 123.8%; in experiment [12] it was 83.5%; in experiment [13] it was 118.7%. Besides, the Percentage cell growth is on record as 90.1% in experiment [14]; 89.9% in experiment [17]; 96.8% in experiment [18]; 95.0% in [19]; 90.8% in [20]; 119.5% in experiment [22]. Also, the Percentage cell growth in experiment [23] came to 126.3%; in experiment [24] it was 74.9%. Besides, the results for the “Percentage cell growth, Arithmetic mean” value in experiment [4], in experiment [16] and in [21] were 95.2%, 92.1% and 90.9%, respectively. Besides, in experiment [15], the “Percentage cell growth, Arithmetic mean of all 60 cell lines” value is 98.0%. Further, the “growth inhibitory effect (in words)” value in experiment [15] is on record as “disadvantageous”.

In the case of `COc1cc(-c2cc3ccncc3c3nc(N)c4cnccc4c23)cc(OC)c1OC`, the Percentage cell growth is on record as 36% in [1]; 29.9% in experiment [2]; 65.3% in [3]; 9.5% in experiment [5]; −2.5% in experiment [6]; −30.4% in experiment [7]. For the same compound, the Percentage cell growth in experiment [8] was 2.2%; in experiment [10], −23.6%; in [11], 35.5%; in [12], 13.1%; in [13], −0.9%; in experiment [14] it was −8.9%. The Percentage cell growth in [17] was 22.8%; in [18] it was 33.5%; in [19] it was 8.31%; in experiment [22] it was 41.5%; in experiment [23], 30.9%; in experiment [24], 7.2%. Besides, the “Percentage cell growth, Arithmetic mean” value in experiment [4] came out at 22.1%; in experiment [16], 12.3%; in experiment [21], 8.2%. Besides, in [15], the “Percentage cell growth, Arithmetic mean of all 60 cell lines” value was found to be 16.8%. In addition, in [15], the “growth inhibitory effect (in words)” value was “best results”.

Consider `Nc1nc2c3cnccc3cc(-c3ccco3)c2c2ccncc12`, for which the Percentage cell growth was 48.4% in experiment [1]; 51.6% in [2]; 91.8% in experiment [3]; 37.0% in experiment [5]; 2.3% in experiment [7]; 20.0% in experiment [8]. In addition, the Percentage cell growth is 41.0% in [9]; 35.6% in [10]; 59.7% in experiment [11]; 7.8% in experiment [12]; 13.9% in experiment [13]; −0.9% in experiment [14]. Further, the Percentage cell growth in experiment [17] is on record as 25.0%; in experiment [18], 62.7%; in experiment [19] it was 16.2%; in experiment [20], 74.9%; in experiment [22], 42.4%; in experiment [23], 69.8%. Further, the Percentage cell growth in experiment [24] is listed as 12.4%. Besides, the “Percentage cell growth, Arithmetic mean” value in experiment [4] is 45.5%; in experiment [16], 24.6%; in experiment [21] it was 40.0%. Also, in experiment [15], the “Percentage cell growth, Arithmetic mean of all 60 cell lines” value was 39.1%. Further, the “growth inhibitory effect (in words)” value in [15] is given as “good cytotoxic effects”.

`COc1cc2c(ccc3c4cc(OC)c(OC)cc4c[n+](C)c23)cc1O` [Fagaronine, reference compound]: in experiment [25], the GI50 is 9.48 µM and the “MG_MID (mean-graph midpoint, mean of the logarithms GI50 values)” value is listed as −5.00.

As to `Nc1cc2c(c3cnccc13)NCc1cnccc1-2` [P4, 6-amino-11,12-dihydropyrido[3,4-c][1,9]phenanthroline], in experiment [25], the GI50 was 8.13 µM and the “MG_MID (mean-graph midpoint, mean of the logarithms GI50 values)” value is given as −5.09.

For `Nc1cc2c(c3cnccc13)N(c1cccc(Br)c1)Cc1cnccc1-2` [P5, 6-amino-11-(3-bromophenyl)-11,12-dihydro-pyrido-[3,4-c][1,9]phenanthroline], in experiment [25], the GI50 is 2.69 µM and the “MG_MID (mean-graph midpoint, mean of the logarithms GI50 values)” value is −5.57. The “percent growth versus concentration (dose-response curves, FIGS. 1 to 9)” value in experiment [25] (nine cancer types, 5 dose assay) is “with increasing concentrations of the substance, the percent growth decreases”.

As to `O=C1CC2=C(c3cnccc31)N(c1cccc(Br)c1)Cc1cnccc12` [P5-O, 11-(3-bromophenyl)-6-oxo-5,6,11,12-tetrahydropyrido[3,4-c][1,9]phenanthroline], in [25], the GI50 was 8.51 µM and the “MG_MID (mean-graph midpoint, mean of the logarithms GI50 values)” value is on record as −5.07.

In the case of `Nc1cc2c(c3cnccc13)N(c1cccc(Cl)c1)Cc1cnccc1-2` [P16, 6-amino-11-(3-chlorophenyl)-11,12 dihydropyrido-[3,4-c][1,9]phenanthroline], in [25], the GI50 is 3.8 µM and the “MG_MID (mean-graph midpoint, mean of the logarithms GI50 values)” value is −5.42.

For `Nc1cc2c(c3cnccc13)N(c1ccc(Cl)c(Cl)c1)Cc1cnccc1-2` [P26, 6-amino-11-(3,4-di-chlorophenyl)-11,12-dihydropyrido-[3,4-c][1,9]phenanthroline], in [25], the GI50 is 6.02 µM and the “MG_MID (mean-graph midpoint, mean of the logarithms GI50 values)” value is reported as −5.22.

Values taken from patent publication US20150099774A1, “Pyrido [3,4-C] [1,9] phenanthroline and 11, 12 dihydropyrido [3,4-C] [1,9] phenanthroline derivatives and the use thereof, particularly for treating cancer” (CHRISTIAN-ALBRECHTS-UNIVERSITAET ZU KIEL, priority 2012, published 2015).
